Results on two molecules are retold here after paper PMC3292765 (Chemistry & biology, 2012).

In assay [1] the target is T1, p67^phox (Homo sapiens, UniProt P19878).
T1 sequence (P19878 1-212): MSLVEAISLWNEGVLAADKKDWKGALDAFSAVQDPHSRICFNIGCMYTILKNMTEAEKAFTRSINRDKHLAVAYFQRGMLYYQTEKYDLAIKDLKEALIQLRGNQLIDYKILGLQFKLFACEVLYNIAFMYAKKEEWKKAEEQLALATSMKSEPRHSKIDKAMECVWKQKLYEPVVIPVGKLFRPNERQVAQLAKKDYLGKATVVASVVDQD
The assay can be described thus: microscale thermophoresis with labeled recombinant protein. It is filed as binding.

Assay [2] addresses T1, p67^phox. Described as above. It is filed as binding. The source holds these as a separate data set.

Where two headings read alike, the source gives them in different places.

What is called Kd is the free concentration of one partner at which half of the binding sites on the other are occupied at equilibrium, for simple one-to-one binding. Take `O=[N+]([O-])c1cccc(C2Nc3ccc([N+](=O)[O-])cc3C3C=CCC32)c1` (centres unmarked) [compound 16, Phox-I2]: the Kd at p67^phox [1] was roughly 150 nM.
Regarding Phox-I1, the Kd at p67^phox [2] was roughly 100 nM.
